Results on seven compounds are retold here after patent US20060194971A1, “Anethole dithiolethione and other dithiolethiones for the treatment of conditions associated with dysfunction of monoamine neruotransmission” (priority 2005, published 2006).

SMILES strings stand for the structures. Read-outs that look alike come from different tables or passages of the source.

In data set [1] the test system is total monoamine oxidase (Σ MAO). The following applies: for Σ MAO activity (% inhibition): solvent 0.03% DMSO only, neonatal rat striatal astroglial cell extracts. Here is the method: (§1) Neonatal rat striatal astroglial cells were used as a source for both MAO-A and MAO-B activity (Carlo et al., Brain Res 711, 175-183, 1996). Astroglial cells were cultured as described (Langeveld et al., Neurosci. Lett. 192, 13-16, 1995). Following one week in culture in 5% CO2/95% air and at 37° C., cells were trypsinized and sonicated in ice cold 25 mM Tris-HCl buffer (pH 7.4) containing 1 mM EDTA. Thereafter, the obtained lysates were centrifuged for 5 min at 1 0,000 g and 4° C., and aliquots of the supernatant fractions were taken for determination of MAO activity using the Amplex Red MAO assay kit (Molecular Probes, Leiden, The Netherlands), which is based on the method described by Zhou and Panchuk-Voloshina (Anal. Biochem. 253, 169-174, 1997). Measurements were performed according to the manufacturers instructions. Briefly, prior to addition of the substrate, the samples were incubated for 30 min in a 96 well plate with drugs or solvent (total volume of 50 μl). Thereafter, 50 μl Amplex Red reagent was added containing 2 U/ml horseradisch peroxidase (HRP), p-tyramine HCl (2 mM, substrate for both MAO A and MAO B (Youdim and Finberg, Biochem. Pharmacol., 41, 155-162, 1991) and Amplex red (10 mM). Under these circumstances, via MAO-catalyzed oxidation of tyramine in a HRP-coupled reaction, Amplex red is converted to fluorescent resorufin. To measure MAO activity, the time-dependent increase in resorufin formation was determined at 2 min time intervals for 30 min at room temperature in a fluorescence microplate reader (BMG Labtechnologies GmbH, Germany), using excitation at 544 nm and emission at 595 nm. […] For calculation of results, the data were corrected for background readings (i.e., in the absence of the MAO substrate tyramine), and expressed as the increase in arbitrary fluorescence units/min. Protein content was determined according to the method of Bradford et al., (Anal. Biochem. 72, 248-254, 1976), using BSA as a standard. Statistical comparisons between groups were made using a one-way analysis of variance (ANOVA) followed by a Newman-Keuls post-hoc test. P values <0.01 were considered significant.
(§2) MAO activity and effects of the drugs thereon were determined as detailed above.
(§3) Data are expressed as percentages of respective controls, and are averages of two till five independent experiments performed in triplicate.

For data set [2], the target named is T1, monoamine oxidase A (MAO-A) (Rattus norvegicus, UniProt P21396).
T1 sequence (P21396 1-526): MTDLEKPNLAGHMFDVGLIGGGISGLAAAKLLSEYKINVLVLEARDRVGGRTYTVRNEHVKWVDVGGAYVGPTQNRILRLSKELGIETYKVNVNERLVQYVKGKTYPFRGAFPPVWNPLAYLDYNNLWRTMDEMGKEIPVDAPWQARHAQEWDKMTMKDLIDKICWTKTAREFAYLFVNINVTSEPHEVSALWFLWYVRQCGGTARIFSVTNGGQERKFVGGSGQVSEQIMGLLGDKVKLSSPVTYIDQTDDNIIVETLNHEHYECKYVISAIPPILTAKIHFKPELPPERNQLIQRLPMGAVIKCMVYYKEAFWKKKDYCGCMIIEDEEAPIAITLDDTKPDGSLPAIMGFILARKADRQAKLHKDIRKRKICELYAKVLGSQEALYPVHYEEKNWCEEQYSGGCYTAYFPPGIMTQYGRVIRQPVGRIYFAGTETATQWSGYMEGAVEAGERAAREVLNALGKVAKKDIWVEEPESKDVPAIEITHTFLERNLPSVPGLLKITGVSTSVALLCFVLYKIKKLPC
Particulars: upon selective and complete blockade of MAO-B activity with deprenyl. Here is the method: as §1, §2, §3

The target of data set [3] is T2, monoamine oxidase-B (MAO-B) (Rattus norvegicus, UniProt P19643).
T2 construct: in cellular extracts obtained from cultures of neonatal rat striatal astroglial cells; endogenous in cells; host or cells: cultured neonatal rat striatal astroglial cells (supernatant of sonicated lysate)
T2 sequence (P19643 1-520): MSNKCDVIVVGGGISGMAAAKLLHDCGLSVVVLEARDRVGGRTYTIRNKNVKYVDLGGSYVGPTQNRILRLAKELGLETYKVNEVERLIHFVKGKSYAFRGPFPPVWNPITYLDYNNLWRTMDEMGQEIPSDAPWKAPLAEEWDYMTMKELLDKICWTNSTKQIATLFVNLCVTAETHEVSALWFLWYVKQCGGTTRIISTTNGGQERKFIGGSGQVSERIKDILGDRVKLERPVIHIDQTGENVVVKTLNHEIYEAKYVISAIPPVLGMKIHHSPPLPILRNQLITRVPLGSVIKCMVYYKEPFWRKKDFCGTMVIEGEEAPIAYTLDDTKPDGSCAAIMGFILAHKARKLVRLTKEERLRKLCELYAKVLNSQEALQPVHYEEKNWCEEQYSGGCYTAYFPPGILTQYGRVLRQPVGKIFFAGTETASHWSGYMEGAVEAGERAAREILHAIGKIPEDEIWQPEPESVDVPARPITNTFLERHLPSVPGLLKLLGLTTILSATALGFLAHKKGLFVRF
Nature of the data set: MAO-B activity in astroglial cell extracts in the presence of clorgyline, Amplex Red MAO assay. It counts as biochemical. Here is the method:
as §1, §2, §3

The test system of another data set is MAO-B. As to the kind of experiment: MAO-B inhibitory activity measured at CEREP (protocol of Salach). It counts as biochemical. The protocol:
MAO-B inhibitory activity of the compounds A1-D6 were measured at CEREP (Paris, France), according to the protocol described by J. L. Salach, Arch. Biochem. Biophys., 192, 128,1979.
MAO-B inhibitory activity of the compounds A1-D6 AS measured at CEREP (Paris, France), according to the protocol described by J. L. Salach, Arch. Biochem. Biophys., 192, 128, 1979.

The mark [4] stands for this setting: read-out: MAO-B activity (% inhibition).

One may read the IC50 as the concentration at which inhibition is half-maximal. By inhibition is commonly meant the drop in the measured response relative to a control, in per cent. Turning to `COc1ccc(-c2cc(=S)ss2)cc1` [ADT, 5-(p-methoxyphenyl)-3H-1,2-dithiole-3-thione], in data set [1] (0.1 μM), the “Σ MAO activity (% inhibition)” value is 14%. In addition, in data set [1] (0.3 μM), the “Σ MAO activity (% inhibition)” value was 35%. Also, the “Σ MAO activity (% inhibition)” value in data set [1] (1 μM) is 60%. Further, in data set [1] (3 μM), the “Σ MAO activity (% inhibition)” value turned out to be 70%. Moreover, the “Σ MAO activity (% inhibition)” value in data set [1] (10 μM) is on record as 81%. The “Σ MAO activity (% inhibition)” value in data set [1] (30 μM) is 85%. In addition, the “maximal effect on total MAO activity (inhibition)” value in data set [1] (at a concentration of 30 μM) was around 80%. The IC50 in data set [1] (read-out: apparent IC50, inhibition of total astroglial MAO activity, substrate tyramine, astroglial cell extracts) is around 0.5 µM. In data set [2], the “effect on MAO-A activity” value is listed as “no statistically significant effect”. The “concentration-effect relationship for MAO-B compared to inhibition of total MAO activity” value in data set [3] (following selective and complete blockade of MAO-A activity by clorgyline) was “identical concentration-effect relationships”. Moreover, in data set [3] (setting [4]), the inhibition at 0.03 µM was determined as 0%, the inhibition at 0.1 µM was determined as 15%, the inhibition at 0.3 µM amounted to 40% and the inhibition at 1 µM is 73%. Besides, in data set [3] (setting [4]), the inhibition at 3 µM is 89%, the inhibition at 10 µM worked out at 96% and the inhibition at 30 µM was determined as 100%.
For orientation: melting point means the temperature of the solid-liquid transition. The compound `CCCCCCOc1ccc(-c2cssc2=S)cc1` [Compound A1] gave a melting point of 121 °C. Further, the “MAO-B %-inhibition at 10^−5 M” value in the data set with MAO-B was found to be 100%.
On to `S=c1ssc(N2CCN(c3cccc4c3OCCO4)CC2)c1-c1ccccc1` [Compound B1], for which, in the data set with MAO-B, the “MAO-B %-inhibition at 10^−5 M” value was found to be 65%.
With `Cc1ccc(-c2c(N3CCN(c4ccccc4)CC3)ssc2=S)cc1` [Compound B3], the “MAO-B %-inhibition at 10^−5 M” value with MAO-B came out at 54%.
`CCN(CC)c1ccc(C=Cc2cc(=S)ss2)cc1` [Compound C1]: the “MAO-B %-inhibition at 10^−5 M” value in the data set on MAO-B turned out to be 52%.
On the same count and under the same terms, with `S=c1cc(C=Cc2ccc3ccccc3n2)ss1` [Compound C2] the figure was 56%.
Regarding `S=c1ccss1` [Compound D3T, 3H-1,2-dithiole-3-thione], the “maximally effective concentration, blockade of MAO-B activity” value in data set [3] (in the presence of clorgyline) came out at 300 µM. Further, in data set [3] (setting [4]), the inhibition at 1 µM amounted to 2%, the inhibition at 3 µM is 6%, the inhibition at 10 µM turned out to be 24% and the inhibition at 30 µM came out at 59%. In addition, in data set [3] (setting [4]), the inhibition at 100 µM stood at 82%, the inhibition at 300 µM was 92% and the inhibition at 1000 µM stood at 91%. Further, the IC50 in data set [3] (read-out: apparent IC50, blockade of MAO-B activity) is around 20 µM.
